Assays:
corn = experiment: Test B pre/postemergence corn; assay type: in vivo, Zea mays
In short: (§1)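 Response is a visual 0-to-10 score relative to untreated plants, where 0 means no effect and 10 means complete control, taken twelve to sixteen days after application. Treatments went onto soil at planting and onto foliage of 1- to 4-leaf plants, using a surfactant-containing non-phytotoxic solvent.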

rice = experiment: Test B flood test rice; assay type: in vivo, Oryza sativa
In short: (§2)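 Flood test on plants grown to the 2-leaf stage; treated plants kept in greenhouse twelve to sixteen days, then visually rated against controls on a 0 (no effect) to 10 (complete control) scale.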

duck salad = experiment: Test B flood test duck salad; assay type: in vivo, Heteranthera limosa
In short: as §2

giant foxtail = experiment: Test B pre/postemergence giant foxtail; assay type: in vivo, Setaria faberii
In short: as §1

blackgrass = experiment: Test B pre/postemergence blackgrass; assay type: in vivo, Alopecurus myosuroides
In short: as §1

bedstraw = experiment: Test B pre/postemergence bedstraw; assay type: in vivo, Galium aparine; details: Preemergence
In short: as §1

cocklebur = experiment: Test B pre/postemergence cocklebur; assay type: in vivo, Xanthium strumarium
In short: as §1

soybean = experiment: Test B pre/postemergence soybean; assay type: in vivo, Glycine max
In short: as §1

smallflower flatsedge = experiment: Test B flood test smallflower flatsedge; assay type: in vivo, Cyperus difformis
In short: as §2

morningglory = experiment: Test B pre/postemergence morningglory; assay type: in vivo, Ipomoea hederacea
In short: as §1

velvetleaf = experiment: Test B pre/postemergence velvetleaf; assay type: in vivo, Abutilon theophrasti
In short: as §1

bamyardgrass = experiment: Test B flood test barnyardgrass; assay type: in vivo, Echinochloa crus-galli
In short: as §2

sugar beet = experiment: Test B pre/postemergence sugar beet; assay type: in vivo, Beta vulgaris
In short: as §1

pigweed = experiment: Test B pre/postemergence pigweed; assay type: in vivo, Amaranthus retroflexus
In short: as §1

crabgrass = experiment: Test B pre/postemergence crabgrass; assay type: in vivo, Digitaria sanguinalis
In short: as §1

wild oat = experiment: Test B pre/postemergence wild oat; assay type: in vivo, Avena fatua
In short: as §1

surinam grass = experiment: Test B pre/postemergence surinam grass; assay type: in vivo, Brachiaria decumbens
In short: as §1

rape = experiment: Test B pre/postemergence rape; assay type: in vivo, Brassica napus
In short: as §1

purple nutsedge = experiment: Test B pre/postemergence purple nutsedge; assay type: in vivo, Cyperus rotundus
In short: as §1

wheat = experiment: Test B pre/postemergence wheat; assay type: in vivo, Triticum aestivum
In short: as §1

[1] = Postemergence, Rate 62 g/ha, scale of 0 to 10, 0 is no effect, 10 is complete control
[2] = Postemergence, Rate 125 g/ha, scale of 0 to 10 where 0 is no effect and 10 is complete control
[3] = Postemergence, Rate 250 g/ha, scale of 0 to 10, 0 is no effect, 10 is complete control
[4] = Postemergence, Rate 500 g/ha, scale of 0 to 10 where 0 is no effect and 10 is complete control
[5] = Preemergence, Rate 62 g/ha, scale 0 to 10 (0 no effect, 10 complete control)
[6] = Preemergence, Rate 125 g/ha, scale of 0 to 10 where 0 is no effect and 10 is complete control
[7] = Preemergence, Rate 500 g/ha, scale of 0 to 10 where 0 is no effect and 10 is complete control
[8] = Rate 62 g/ha, flood test species, Pre-emergence, visual evaluation after twelve to sixteen days
[9] = Rate 125 g/ha, under heading Pre-emergence, flood test species, visual evaluation after twelve to sixteen days
[10] = Rate 250 g/ha, Pre-emergence (flood test species), scale 0 to 10, 0 is no effect, 10 is complete control
[11] = Rate 500 g/ha, Pre-emergence section of Table B, 0 to 10 scale (0 no effect, 10 complete control)

CC(C)N(C(=O)n1oc(=O)n(C(C)CBr)c1=O)c1ccc(F)cc1F (stereo not drawn) [Compound 594]
Corn plant response rating (corn; [1]): 0 | Plant response rating, Corn (corn; [2]): 0 | Corn plant response rating (corn; [3]): 0 | Plant response rating, Corn (corn; [4]): 0 | Corn plant response rating (corn; [5]): 0 | Corn plant response rating (corn; [6]): 0 | Corn plant response rating (0 to 10 scale) (corn; Preemergence, Rate 250 g/ha): 2 | Plant response rating, Corn (corn; [7]): 4 | Plant response rating, Rice (0 to 10 scale, 0 is no effect, 10 is complete control) (rice; [8]): 0 | Rice plant response rating (0 to 10 scale, 0 is no effect, 10 is complete control) (rice; [9]): 0 | Rice plant response rating (rice; [10]): 0 | Rice plant response rating (rice; [11]): 0 | Plant response rating, Ducksalad (0 to 10 scale, 0 is no effect, 10 is complete control) (duck salad; [8]): 0 | Ducksalad plant response rating (0 to 10 scale, 0 is no effect, 10 is complete control) (duck salad; [9]): 0 | Ducksalad plant response rating (duck salad; [10]): 0 | Ducksalad plant response rating (duck salad; [11]): 0 | Giant foxtail plant response rating (giant foxtail; [1]): 6 | Plant response rating, Giant foxtail (giant foxtail; [2]): 7 | Giant foxtail plant response rating (giant foxtail; [3]): 7 | Plant response rating, Giant foxtail (giant foxtail; [4]): 9 | Giant foxtail plant response rating (giant foxtail; [5]): 9 | Giant foxtail plant response rating (giant foxtail; [6]): 9 | Plant response rating, Giant foxtail (giant foxtail; [7]): 10 | Plant response rating, Blackgrass (blackgrass; [2]): 5 | Blackgrass plant response rating (blackgrass; [3]): 5 | Plant response rating, Blackgrass (blackgrass; [4]): 5 | Blackgrass plant response rating (blackgrass; [5]): 5 | Blackgrass plant response rating (blackgrass; [6]): 5 | Blackgrass plant response rating (0 to 10 scale) (blackgrass; Preemergence, Rate 250 g/ha): 9 | Blackgrass plant response rating (blackgrass; [7]): 9 | Bedstraw plant response rating (bedstraw; Rate 62 g/ha, scale 0 to 10 (0 no effect, 10 complete control)): 0 | Bedstraw plant response rating (bedstraw; Rate 125 g/ha, scale of 0 to 10 where 0 is no effect and 10 is complete control): 0 | Bedstraw plant response rating (0 to 10 scale) (bedstraw; Rate 250 g/ha): 2 | Bedstraw plant response rating (bedstraw; Rate 500 g/ha, scale of 0 to 10 where 0 is no effect and 10 is complete control): 9 | Cocklebur plant response rating (cocklebur; [1]): 0 | Plant response rating, Cocklebur (cocklebur; [2]): 0 | Cocklebur plant response rating (cocklebur; [3]): 3 | Plant response rating, Cocklebur (cocklebur; [4]): 4 | Cocklebur plant response rating (cocklebur; [6]): 0 | Cocklebur plant response rating (0 to 10 scale) (cocklebur; Preemergence, Rate 250 g/ha): 0 | Plant response rating, Cocklebur (cocklebur; [7]): 2 | Plant response rating, Soybean (soybean; [2]): 0 | Plant response rating, Soybean (soybean; [4]): 4 | Soybean plant response rating (soybean; [5]): 0 | Soybean plant response rating (soybean; [6]): 0 | Plant response rating, Soybean (soybean; [7]): 4 | Plant response rating, S. Flatsedge (0 to 10 scale, 0 is no effect, 10 is complete control) (smallflower flatsedge; [8]): 0 | S. Flatsedge plant response rating (0 to 10 scale, 0 is no effect, 10 is complete control) (smallflower flatsedge; [9]): 0 | S. Flatsedge plant response rating (smallflower flatsedge; [10]): 0 | S. Flatsedge plant response rating (smallflower flatsedge; [11]): 0 | Morningglory plant response rating (morningglory; [1]): 0 | Plant response rating, Morningglory (morningglory; [2]): 2 | Morningglory plant response rating (morningglory; [3]): 2 | Plant response rating, Morningglory (morningglory; [4]): 7 | Morningglory plant response rating (morningglory; [5]): 0 | Morningglory plant response rating (morningglory; [6]): 0 | Plant response rating, Morningglory (morningglory; [7]): 6 | Plant response rating, Velvetleaf (velvetleaf; [2]): 3 | Velvetleaf plant response rating (velvetleaf; [3]): 3 | Plant response rating, Velvetleaf (velvetleaf; [4]): 5 | Velvetleaf plant response rating (velvetleaf; [5]): 2 | Velvetleaf plant response rating (velvetleaf; [6]): 4 | Plant response rating, Velvetleaf (velvetleaf; [7]): 7 | Plant response rating, Barnyardgrass (0 to 10 scale, 0 is no effect, 10 is complete control) (bamyardgrass; [8]): 0 | Barnyardgrass plant response rating (0 to 10 scale, 0 is no effect, 10 is complete control) (bamyardgrass; [9]): 0 | Barnyardgrass plant response rating (bamyardgrass; [10]): 0 | Barnyardgrass plant response rating (bamyardgrass; [11]): 0 | Plant response rating, Sugarbeets (sugar beet; [2]): 5 | Sugarbeets plant response rating (sugar beet; [3]): 5 | Plant response rating, Sugarbeets (sugar beet; [4]): 5 | Sugarbeets plant response rating (sugar beet; [5]): 0 | Sugarbeets plant response rating (sugar beet; [6]): 0 | Plant response rating, Sugarbeets (sugar beet; [7]): 8 | Plant response rating, Redroot pigweed (pigweed; [2]): 0 | Redroot pigweed plant response rating (pigweed; [3]): 3 | Plant response rating, Redroot pigweed (pigweed; [4]): 4 | Redroot pigweed plant response rating (pigweed; [5]): 0 | Redroot pigweed plant response rating (pigweed; [6]): 0 | Plant response rating, Redroot pigweed (pigweed; [7]): 10 | Crabgrass plant response rating (crabgrass; [1]): 5 | Plant response rating, Crabgrass (crabgrass; [2]): 7 | Crabgrass plant response rating (crabgrass; [3]): 9 | Plant response rating, Crabgrass (crabgrass; [4]): 9 | Crabgrass plant response rating (crabgrass; [5]): 9 | Crabgrass plant response rating (crabgrass; [6]): 9 | Plant response rating, Crabgrass (crabgrass; [7]): 9 | Plant response rating, Wild oats (wild oat; [2]): 0 | Wild oats plant response rating (wild oat; [3]): 0 | Plant response rating, Wild oats (wild oat; [4]): 0 | Wild oats plant response rating (wild oat; [5]): 0 | Wild oats plant response rating (wild oat; [6]): 0 | Plant response rating, Wild oats (wild oat; [7]): 5 | B. signalgrass plant response rating (surinam grass; [1]): 0 | Plant response rating, B. signalgrass (surinam grass; [2]): 0 | B. signalgrass plant response rating (surinam grass; [3]): 2 | Plant response rating, B. signalgrass (surinam grass; [4]): 3 | B. signalgrass plant response rating (surinam grass; [5]): 3 | B. signalgrass plant response rating (surinam grass; [6]): 3 | B. signalgrass plant response rating (0 to 10 scale, 0 is no effect, 10 is complete control) (surinam grass; Preemergence, Rate 250 g/ha): 5 | B. signalgrass plant response rating (surinam grass; [7]): 7 | Rape plant response rating (rape; [1]): 0 | Plant response rating, Rape (rape; [2]): 0 | Rape plant response rating (rape; [3]): 0 | Plant response rating, Rape (rape; [4]): 0 | Rape plant response rating (rape; [5]): 0 | Rape plant response rating (rape; [6]): 0 | Plant response rating, Rape (rape; [7]): 9 | Nutsedge plant response rating (purple nutsedge; [1]): 0 | Plant response rating, Nutsedge (purple nutsedge; [2]): 0 | Nutsedge plant response rating (purple nutsedge; [3]): 3 | Plant response rating, Nutsedge (purple nutsedge; [4]): 3 | Nutsedge plant response rating (purple nutsedge; [5]): 0 | Nutsedge plant response rating (purple nutsedge; [6]): 0 | Plant response rating, Nutsedge (purple nutsedge; [7]): 6 | Plant response rating, Wheat (wheat; [2]): 0 | Wheat plant response rating (wheat; [3]): 0 | Plant response rating, Wheat (wheat; [4]): 0 | Wheat plant response rating (wheat; [5]): 0 | Wheat plant response rating (wheat; [6]): 0 | Plant response rating, Wheat (wheat; [7]): 2
